Broadly, the IC50 is the midpoint of a concentration-inhibition curve. A low value points to higher potency.

Molecules are shown by their SMILES. Converted amounts (≈) assume the structure as drawn. “And” between values parts separate entries of the source, which are not always exact repeats. Equal entries are not always repeated.

Assay [1] concerns Haemophilus influenzae. The experiment in a line: Minimum inhibitory concentration required for primary screening against in-house strain of Haemophilus influenzae tested in vitro; Range- 0.12-16. It counts as functional.
Assay [2] deals with Streptococcus pneumoniae. The experiment in a line: Minimum inhibitory concentration required for primary screening against in-house strain of Streptococcus pneumoniae tested in vitro; Range- 0.008-1. It counts as functional.
The subject of assay [3] is Moraxella catarrhalis. The experiment in a line: Minimum inhibitory concentration required for primary screening against in-house strain of Moraxella catarrhalis tested in vitro; Range- 0.008-0.12. It counts as functional.
The subject of assay [4] is Haemophilus influenzae. The experiment in a line: Minimum inhibitory concentration required for primary screening against in-house strain of Haemophilus influenzae tested in vitro; Range- 0.5-1. It counts as functional.
Another assay deals with Escherichia coli. The experiment in a line: Minimum inhibitory concentration required for primary screening against in-house strain of Escherichia coli tested in vitro. It counts as functional.
Assay [5] concerns Moraxella catarrhalis. The experiment in a line: Minimum inhibitory concentration required for primary screening against in-house strain of Moraxella catarrhalis tested in vitro. It counts as functional.
Assay [6] concerns Haemophilus influenzae. The experiment in a line: Minimum inhibitory concentration required for primary screening against in-house strain of Haemophilus influenzae tested in vitro; Range- 0.06->/=16. It counts as functional.
In assay [7] the test system is Moraxella catarrhalis. The experiment in a line: Minimum inhibitory concentration required for primary screening against in-house strain of Moraxella catarrhalis tested in vitro; Range- 0.015-0.12. It counts as functional.
The test system of assay [8] is Streptococcus pneumoniae. The experiment in a line: Minimum inhibitory concentration required for primary screening against in-house strain of Streptococcus pneumoniae tested in vitro; Range- 0.25-0.5. It counts as functional.
For the next assay, the system named is Staphylococcus capitis. The experiment in a line: Minimum inhibitory concentration required for primary screening against in-house strain of Staphylococcus capitis tested in vitro. It counts as functional.
In the next assay the target is T1, Peptide deformylase (Escherichia coli, UniProt Q9JN24).
T1 sequence (Q9JN24 whole entry): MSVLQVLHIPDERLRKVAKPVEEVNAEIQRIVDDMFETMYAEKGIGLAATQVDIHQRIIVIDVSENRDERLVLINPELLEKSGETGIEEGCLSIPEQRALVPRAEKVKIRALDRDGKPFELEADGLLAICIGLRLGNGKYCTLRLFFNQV
The experiment in a line: Inhibitory activity against Escherichia coli peptide deformylase (PDF) Nickel containing enzyme.

Assay [9] deals with Streptococcus pneumoniae. The experiment in a line: Minimum inhibitory concentration required for primary screening against in-house strain of Streptococcus pneumoniae tested in vitro; Range- 0.25-2. It counts as functional.
In assay [10] the test system is Streptococcus pneumoniae. The experiment in a line: Minimum inhibitory concentration required for primary screening against in-house strain of Streptococcus pneumoniae tested in vitro; Range- 2->8. It counts as functional.
The test system of assay [11] is Moraxella catarrhalis. The experiment in a line: Minimum inhibitory concentration required for primary screening against in-house strain of Moraxella catarrhalis tested in vitro; Range = 0.015-0.12. It counts as functional.
The subject of assay [12] is Haemophilus influenzae. The experiment in a line: Minimum inhibitory concentration required for primary screening against in-house strain of Haemophilus influenzae tested in vitro; Range- 0.06-8. It counts as functional.

As to `CC1(C)S[C@@H]2[C@H](NC(=O)[C@H](N)c3ccc(O)cc3)C(=O)N2[C@H]1C(=O)O.O=C(O)[C@H]1/C(=C/CO)O[C@@H]2CC(=O)N21`, the MIC90 against Haemophilus influenzae [1] was 1 µg/mL; against Streptococcus pneumoniae [2] it was 1 µg/mL; against Moraxella catarrhalis [3], 0.12 µg/mL.

Take `CC(C)(C)[C@H](NC(=O)[C@H](CC1CCCC1)CN(O)C=O)C(=O)c1ccc(N2CCOCC2)cc1`: the MIC with Haemophilus influenzae [4] is less than 1 µg/mL; in the assay on Escherichia coli, 12.5 µM (≈ 5.92 µg/mL); in the assay with Moraxella catarrhalis [5], 0.125 µg/mL (≈ 0.264 µM); in the assay with Streptococcus pneumoniae [8] it was less than 0.5 µg/mL; against Staphylococcus capitis, 1.5 µM (≈ 0.71 µg/mL). For the same compound, the MIC90 with Haemophilus influenzae [6] was 4 µg/mL (≈ 8.45 µM); against Moraxella catarrhalis [7], 0.12 µg/mL (≈ 0.253 µM); in the assay with Streptococcus pneumoniae [9] it was less than 2 µg/mL. Besides, the half-inhibitory concentration (IC50) on Peptide deformylase was 6 nM and 2 nM.

As for `CCCC[C@H](CN(O)C=O)C(=O)N[C@H](C(=O)N(C)C)C(C)(C)C`, the values for the MIC90 with Streptococcus pneumoniae [10], against Moraxella catarrhalis [11] and in the assay on Haemophilus influenzae [12] were greater than 16 µg/mL, 0.12 µg/mL (≈ 0.364 µM) and 2 µg/mL (≈ 6.07 µM), respectively.

Source of the values: ChEMBL document CHEMBL1137072, “Peptide deformylase inhibitors with activity against respiratory tract pathogens” (Bioorg Med Chem Lett, 2004).
